From patent US20220062240A1, “METHODS OF TREATING CANCER USING A CLK INHIBITOR” (BioSplice Therapeutics, Inc., priority 2018, published 2022)
Where two headings read alike, the source gives them in different places.

How the values were obtained:
CLK2 = target: T1, CLK2 (Homo sapiens, UniProt P49760); assay: CLK2 kinase activity assay (Z-lyte, Ser/Thr 6 peptide); type: biochemical; conditions: recombinant CLK2 kinase, ATP 60 μM; read-out: EC50
T1 construct: purchased Thermo Fisher (Life Technologies), Z'-LYTE Kinase Assay Kits
Experimental: All reactions were performed in duplicate.

[1] = test system: haematopoietic & lymphoid tumors (13 cell lines); assay: CellTiter-Glo Viability Assay, haematopoietic & lymphoid tumors; type: cell-based; conditions: Homo sapiens, inhibition of cancer cell proliferation
[2] = test system: colorectal cancer (6 cell lines); assay: CellTiter-Glo Viability Assay, colorectal cancer; type: cell-based; conditions: Homo sapiens, inhibition of cancer cell proliferation
[3] = test system: ovarian cancer (4 cell lines); assay: CellTiter-Glo Viability Assay, ovarian cancer; type: cell-based; conditions: Homo sapiens, inhibition of cancer cell proliferation
MDA-MB-231-Luc = assay: CellTiter-Glo Viability Assay, breast cancer; type: cell-based; conditions: Homo sapiens, 96 h; MDA-MB-231-Luc, breast cancer, four days; read-out: EC50
ZR-75-1 = assay: CellTiter-Glo Viability Assay, breast cancer; type: cell-based; conditions: Homo sapiens, 96 h; ZR-75-1, breast cancer, four days; read-out: EC50
MCF7 = assay: CellTiter-Glo Viability Assay, breast cancer; type: cell-based; conditions: Homo sapiens, 96 h; MCF7, breast cancer, four days; read-out: EC50
BT-549 = assay: CellTiter-Glo Viability Assay, breast cancer; type: cell-based; conditions: Homo sapiens, 96 h; BT-549, breast cancer, four days; read-out: EC50
HCC1599 = assay: CellTiter-Glo Viability Assay, breast cancer; type: cell-based; conditions: Homo sapiens, 96 h; HCC1599, breast cancer, four days; read-out: EC50
DU4475 = assay: CellTiter-Glo Viability Assay, breast cancer; type: cell-based; conditions: Homo sapiens, DU-4475, 96 h; DU4475, breast cancer, four days; read-out: EC50
CAMA1 = assay: CellTiter-Glo Viability Assay, breast cancer; type: cell-based; conditions: Homo sapiens, CAMA-1, 96 h; CAMA1, breast cancer, four days; read-out: EC50
T47D = assay: CellTiter-Glo Viability Assay, breast cancer; type: cell-based; conditions: Homo sapiens, 96 h, breast cancer, four days, read-out: EC50
[4] = test system: prostate cancer (5 cell lines); assay: CellTiter-Glo Viability Assay, prostate cancer; type: cell-based; conditions: Homo sapiens
[5] = test system: liver cancer (3 cell lines); assay: CellTiter-Glo Viability Assay, liver cancer; type: cell-based; conditions: Homo sapiens, inhibition of cancer cell proliferation
[6] = test system: lung cancer (4 cell lines); assay: CellTiter-Glo Viability Assay, lung cancer; type: cell-based; conditions: Homo sapiens, inhibition of cancer cell proliferation
all 50 cell lines = assay: CellTiter-Glo Viability Assay, average across all cell lines; type: cell-based; conditions: Homo sapiens; across all 50 cell lines; read-out: average EC50 for inhibition of cancer cell proliferation
How it was run: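 Luminescent ATP read-out (CellTiter-Glo) after a 4-day compound exposure at 37° C served as the viability measure. Cells were seeded at 300-3,000/well, compound wells run in duplicate against DMSO controls, and EC50 values came from fitted dose-response curves.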

CLK3 = CLK3 (Homo sapiens, UniProt P49761); assay: CLK3 kinase activity assay (Z-lyte, Ser/Thr 18 peptide)
[7] = test system: pancreatic cancer (8 cell lines); assay: CellTiter-Glo Viability Assay, pancreatic cancer; type: cell-based; conditions: Homo sapiens, inhibition of cancer cell proliferation

Chain of CLK3 (P49761 whole entry): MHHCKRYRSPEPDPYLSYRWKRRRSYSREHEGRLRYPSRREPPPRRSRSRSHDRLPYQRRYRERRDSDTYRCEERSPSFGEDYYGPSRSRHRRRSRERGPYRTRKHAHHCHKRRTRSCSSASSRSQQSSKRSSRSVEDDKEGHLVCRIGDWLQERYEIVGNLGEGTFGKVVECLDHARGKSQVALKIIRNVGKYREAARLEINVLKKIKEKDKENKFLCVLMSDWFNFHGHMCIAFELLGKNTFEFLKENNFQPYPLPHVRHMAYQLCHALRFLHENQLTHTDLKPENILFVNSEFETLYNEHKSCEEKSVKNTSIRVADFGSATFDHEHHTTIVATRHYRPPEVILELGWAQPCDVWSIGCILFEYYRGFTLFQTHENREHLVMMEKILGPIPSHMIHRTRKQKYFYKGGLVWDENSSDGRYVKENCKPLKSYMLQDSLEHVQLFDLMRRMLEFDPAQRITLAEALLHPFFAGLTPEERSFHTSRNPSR
T1 sequence (P49760 whole entry): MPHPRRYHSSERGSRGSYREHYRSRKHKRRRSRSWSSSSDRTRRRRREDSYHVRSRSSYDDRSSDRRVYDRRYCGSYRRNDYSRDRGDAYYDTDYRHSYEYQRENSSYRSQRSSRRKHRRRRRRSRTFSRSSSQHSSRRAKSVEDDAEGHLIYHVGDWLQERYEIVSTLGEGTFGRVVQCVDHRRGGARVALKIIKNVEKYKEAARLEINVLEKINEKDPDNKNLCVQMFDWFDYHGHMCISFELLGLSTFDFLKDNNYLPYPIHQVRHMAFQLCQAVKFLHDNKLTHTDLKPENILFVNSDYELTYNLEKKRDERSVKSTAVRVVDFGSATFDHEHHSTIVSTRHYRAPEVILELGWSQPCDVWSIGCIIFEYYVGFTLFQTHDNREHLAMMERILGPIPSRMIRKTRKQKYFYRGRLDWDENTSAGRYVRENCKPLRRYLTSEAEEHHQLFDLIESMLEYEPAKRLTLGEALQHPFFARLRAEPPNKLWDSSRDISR

EC50 (CLK2): 4.7 nM
EC50 ([1]; DND41, DND-41 cell line, read-out: Haematopoietic & Lymphoid tumors, EC50 (μM) DND-41): 1.37 µM
EC50 ([1]; MV4-11, MV-4-11 cell line, read-out: Haematopoietic & Lymphoid tumors, EC50 (μM) MV-4-11): 0.292 µM
EC50 ([1]; Rec1, REC-1 cell line, read-out: Haematopoietic & Lymphoid tumors, EC50 (μM) REC-1): 0.663 µM
EC50 ([1]; SU-DHL-4, SUDHL4 cell line, read-out: Haematopoietic & Lymphoid tumors, EC50 (μM) SUDHL4): 1.11 µM
EC50 ([1]; HL-60 cell line, read-out: Haematopoietic & Lymphoid tumors, EC50 (μM) HL-60): 2.85 µM
EC50 ([1]; JM1 cell line, read-out: Haematopoietic & Lymphoid tumors, EC50 (μM) JM1): 0.645 µM
EC50 ([1]; JURKAT, Clone E6-1 cell line, read-out: Haematopoietic & Lymphoid tumors, EC50 (μM) JURKAT, Clone E6-1): 2.14 µM
EC50 ([1]; JeKo-1 cell line, read-out: Haematopoietic & Lymphoid tumors, EC50 (μM) JeKo-1): 0.884 µM
EC50 ([1]; KASUMI-1 cell line, read-out: Haematopoietic & Lymphoid tumors, EC50 (μM) KASUMI-1): 1.22 µM
EC50 ([1]; Loucy cell line, read-out: Haematopoietic & Lymphoid tumors, EC50 (μM) Loucy): 1.07 µM
EC50 ([1]; MOLT-4 cell line, read-out: Haematopoietic & Lymphoid tumors, EC50 (μM) MOLT-4): 1.46 µM
EC50 ([1]; TF-1 cell line, read-out: Haematopoietic & Lymphoid tumors, EC50 (μM) TF-1): 2.11 µM
EC50 ([1]; TOLEDO cell line, read-out: Haematopoietic & Lymphoid tumors, EC50 (μM) TOLEDO): 0.811 µM
EC50 ([2]; HCT-116, HCT116 cell line, read-out: Colorectal cancer, EC50 (μM) HCT116): 0.718 µM
EC50 ([2]; HT-29, HT29 cell line, read-out: Colorectal cancer, EC50 (μM) HT29): 1.17 µM
EC50 ([2]; SW-620, SW620 cell line, read-out: Colorectal cancer, EC50 (μM) SW620): 0.49 µM
EC50 ([2]; DLD-1 cell line, read-out: Colorectal cancer, EC50 (μM) DLD-1): 0.848 µM
EC50 ([2]; SW48 cell line, read-out: Colorectal cancer, EC50 (μM) SW48): 0.454 µM
EC50 ([2]; SW480 cell line, read-out: Colorectal cancer, EC50 (μM) SW480): 1.46 µM
EC50 ([3]; PA-1, PA1 cell line, read-out: Ovarian cancer, EC50 (μM) PA1): 1.25 µM
EC50 ([3]; TOV112D, TOV-112D cell line, read-out: Ovarian cancer, EC50 (μM) TOV-112D): 1.23 µM
EC50 ([3]; OV-90 cell line, read-out: Ovarian cancer, EC50 (μM) OV-90): 6.93 µM
EC50 ([3]; OVCAR-3 cell line, read-out: Ovarian cancer, EC50 (μM) OVCAR-3): 1.2 µM
EC50 (MDA-MB-231-Luc): 3790 nM
EC50 (ZR-75-1): 4180 nM
EC50 (MCF7): > 10000 nM
EC50 (BT-549): 2890 nM
EC50 (HCC1599): > 10000 nM
EC50 (DU4475): 2500 nM
EC50 (CAMA1): 2130 nM
EC50 (T47D): > 10000 nM
EC50 ([4]; DU-145, read-out: Prostate cancer EC50 Du-145): 2690 nM
EC50 ([4]; PC-3, PC3 cell line, inhibition of cancer cell proliferation, read-out: Prostate cancer EC50 PC3): 3350 nM
EC50 ([4]; 22Rv1 cell line, inhibition of cancer cell proliferation, read-out: Prostate cancer EC50 22Rv1): 1210 nM
EC50 ([4]; LNCap clone FGC cell line, inhibition of cancer cell proliferation, read-out: Prostate cancer EC50 LNCap clone FGC): 5330 nM
EC50 ([4]; VCaP (Sigma) cell line, inhibition of cancer cell proliferation, read-out: Prostate cancer EC50 VCaP (Sigma)): 2250 nM
EC50 ([5]; SNU-398, SNU398 cell line, read-out: Liver cancer, EC50 SNU398): 459 nM
EC50 ([5]; HEPG2 cell line, read-out: Liver cancer, EC50 HEPG2): 3860 nM
EC50 ([5]; PLC/PRF/5 cell line, read-out: Liver cancer, EC50 PLC/PRF/5): > 10000 nM
EC50 ([6]; A-427, A427 cell line, read-out: Lung cancer, EC50 (μM) A427): 1.5 µM
EC50 ([6]; HCC78, HCC-78 cell line, read-out: Lung cancer, EC50 (μM) HCC-78): 6.86 µM
EC50 ([6]; NCI-H460 cell line, read-out: Lung cancer, EC50 (μM) NCI-H460): 2.72 µM
EC50 ([6]; NCI-H522 cell line, read-out: Lung cancer, EC50 (μM) NCI-H522): 0.895 µM
EC50 (CLK3): 11.5 nM
EC50 ([7]; BXPC-3, BxPC3 cell line, read-out: Pancreatic cancer, EC50 BxPC3): 1710 nM
EC50 ([7]; CAPAN-1, Capan1 cell line, read-out: Pancreatic cancer, EC50 Capan1): 1890 nM
EC50 ([7]; Capan-2, Capan2 cell line, read-out: Pancreatic cancer, EC50 Capan2): 2630 nM
EC50 ([7]; MIA PaCa-2 cell line, read-out: Pancreatic cancer, EC50 MIA PaCa-2): 1010 nM
EC50 ([7]; PANC 05.04 cell line, read-out: Pancreatic cancer, EC50 PANC 05.04): 2890 nM
EC50 ([7]; PANC-1 cell line, read-out: Pancreatic cancer, EC50 PANC-1): 5420 nM
EC50 ([7]; UPAFII cell line, read-out: Pancreatic cancer, EC50 UPAFII): 983 nM
SMILES: CN1CC=C(c2cc(C(=O)Nc3cc4cc(-c5cncc(NC(C)(C)C)n5)cnc4cn3)ccn2)CC1 [Compound 86]
EC50 (all 50 cell lines): 2710 nM
